Measurements published in US11932663B2 (CanWell Biotech Limited, priority 2020, dated 2024).

What follows are compounds tested on Human PBMC (assay: TLR7/8 agonists induce cytokine release in human PBMC (ELISA of culture supernatant)). Conditions: 24 h incubation, lowest concentration inducing cytokine at least 2x greater than negative control wells.
Type: cell-based
Protocol: Example 8. TLR7/8 Agonists Induce IFN-Gamma and TNF-Alpha Release in Human PBMC
The system is used to assess the cytokines release. Activity is based on the measurement of interferon-gamma (IFN-γ) and tumor necrosis factor-alpha (TNF-α) secreted into culture media.
Fresh human blood was diluted with the same volume of PBS, 15 mL Lymphoprep was added into a Sepmate tube, then 30 mL diluted blood was added on the top gently without disturbing the interface.
The Sepmate tube was centrifuged for 25 min at 1000×g at RT with brake off.
The buffy coat containing peripheral blood mononuclear cells (PBMCs) was collected from Sepmate tube and transferred into a new tube, and the cells were washed with 40 mL PBS twice and centrifuged at 350×g for 5 min.
PBMCs were resuspended in complete culture medium at a density of 2E6/ml.
The compounds are solubilized in dimethyl sulfoxide (DMSO) and diluted into indicated concentration with complete culture medium.
2*10^5 PBMCs (in 100 μL) were added to each well of 96-well flat bottom plate.
2× final concentration of 3-fold serial diluted compounds (in 100 μL) were added to indicated wells and final volume was 200 μL.
The plate was covered with sterile lids, mixed gently and then incubated for 24 h at 37° C./5% CO2 incubator.
Following incubation, the plates was centrifuged for 5 min. at 400×g. The cell-free culture Supernatant was removed into a non-sterile polypropylene plate. Samples are maintained at −80° C. until analysis. The samples were analyzed for TNF-α and IFN-γ by ELSA according to the direction.
TNF-α and IFN-α were analyzed by ELISA. IFN-α concentration was determined by ELISA using a Human IFN-α ELISA Kit from R&D Systems (Catalog #41100-2) and read on VICTOR Nivo™ from PerkinElmer. Results were expressed in pg/mL. TNF-α concentration was determined by ELISA using a Human TNF-alpha ELISA MAX™ Deluxe from BioLegend (Catalog #430205) and read on VICTOR Nivo™ from PerkinElmer. Results were expressed in pg/mL.
Specifically, the MEC of each compound (micromolar) was determined as the lowest concentration of the compound that induced a measured cytokine response at a level ([…]) that was at least 2× greater than that observed with the negative control wells.

SMILES | MEC to induce cytokine IFN-alpha [µM] | MEC to induce cytokine TNF-alpha [µM]
CCCCc1nc2c(N)nc3cc(P(C)(C)=O)ccc3c2n1OCCCCN [Example 1, (4-amino-1-(4-aminobutoxy)-2-butyl-1H-imidazo[4,5-c]quinolin-7-yl)dimethylphosphine oxide] | 0.046 | 3.7
CCCCc1nc2c(N)nc3cc(P(=O)(CC)CC)ccc3c2n1OCCCCN [Example 2, (4-amino-1-(4-aminobutoxy)-2-butyl-1H-imidazo[4,5-c]quinolin-7-yl)diethylphosphine oxide] | 0.137 | 11.1
CCCCCCCCCCCCCCCCCC(=O)NCCCCOn1c(CCCC)nc2c(N)nc3cc(P(C)(C)=O)ccc3c21 [Example 3, N-(4-((4-amino-2-butyl-7-(dimethylphosphoryl)-1H-imidazo[4,5-c]quinolin-1-yl)oxy)butyl)stearamide] | 0.015 | 0.015
CCCCCCCCCCCCCCCCCNc1c(NCCCCOn2c(CCCC)nc3c(N)nc4cc(P(C)(C)=O)ccc4c32)c(=O)c1=O [Example 4] | 1.73 | 11.1
CCCCCCCCCCCCCCCCCc1cn(CCCCOn2c(CCCC)nc3c(N)nc4cc(P(C)(C)=O)ccc4c32)nn1 [Example 6, (4-amino-2-butyl-1-(4-(4-heptadecyl-1H-1,2,3-triazol-1-yl)butoxy)-1H-imidazo[4,5-c]quinolin-7-yl)dimethylphosphine oxide] | >33.3 | >33.3
CCCCCCCCCCCCCCCCCNc1c(NCCCCOn2c(CCCC)nc3c(N)nc4cc(P(=O)(CC)CC)ccc4c32)c(=O)c1=O [Example 7, 3-(4-(4-amino-2-butyl-7-(diethylphosphoryl)-1H-imidazo[4,5-c]quinolin-1-yloxy)butylamino)-4-(heptadecylamino)cyclobut-3-ene-1,2-dione] | 0.015 | 3.7
